Data published in patent US20240246964A1 (Arbutus Biopharma Corporation, priority 2021, published 2024).

Biological target: human PD-L1 (Homo sapiens (Human), UniProt Q9NZQ7)
Experiment: T cell activation luciferase reporter cell culture system (T Cell Activation Assay)
Assay type: cell-based
Conditions: luciferase reporter assay; PD-L1 aAPC/CHO-K1 cells with PD-1 effector Jurkat T cells

Sequence of human PD-L1 (Q9NZQ7 19-290): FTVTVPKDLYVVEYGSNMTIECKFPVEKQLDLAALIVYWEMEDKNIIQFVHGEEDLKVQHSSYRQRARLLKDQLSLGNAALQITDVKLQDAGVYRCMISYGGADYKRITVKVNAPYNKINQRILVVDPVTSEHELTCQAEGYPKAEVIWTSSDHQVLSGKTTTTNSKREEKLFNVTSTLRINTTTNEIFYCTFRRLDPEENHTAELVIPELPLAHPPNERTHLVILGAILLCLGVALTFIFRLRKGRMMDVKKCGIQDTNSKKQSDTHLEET

Row | SMILES | EC50 [nM]
1 | COc1nc(-c2cccc(-c3ccnc(-c4ccc5c(c4)CCC[C@H]5NC[C@@H]4CCC(=O)N4)c3Cl)c2Cl)ccc1CNC[C@H](C)O [Example 256, (S)-5-((((R)-6-(3-Chloro-4-(2-chloro-3-(5-((((S)-2-hydroxypropyl)amino)methyl)-6-methoxypyridin-2-yl)phenyl)pyridin-2-yl)-1,2,3,4-tetrahydronaphthalen-1-yl)amino)methyl)pyrrolidin-2-one] | 168
2 | COc1nc(-c2cccc(-c3ccnc(-c4ccc5c(c4)CCC[C@H]5NC[C@@H]4CCC(=O)N4)c3Cl)c2Cl)ccc1CN[C@H]1CCOC1=O [Example 257, (S)-5-((((R)-6-(3-Chloro-4-(2-chloro-3-(6-methoxy-5-((((S)-2-oxotetrahydrofuran-3-yl)amino)methyl)pyridin-2-yl)phenyl)pyridin-2-yl)-1,2,3,4-tetrahydronaphthalen-1-yl)amino)methyl)pyrrolidin-2-one] | ≥ 10000
3 | COc1nc(-c2cccc(-c3ccnc(-c4cc(OC)c5nc(CN[C@H]6CC[C@H](O)CC6)nn5c4)c3Cl)c2Cl)ccc1CNC[C@@H]1CCC(=O)N1 [Example 260, (S)-5-((((6-(2-Chloro-3-(3-chloro-2-(2-((((1r,4r)-4-hydroxycyclohexyl)amino)methyl)-8-methoxy-[1,2,4]triazolo[1,5-a]pyridin-6-yl)pyridin-4-yl)phenyl)-2-methoxypyridin-3-yl)methyl)amino)methyl)pyrrolidin-2-one] | 26.8
4 | COc1nc(-c2cccc(-c3ccnc(-c4cc(OC)c5nc(CNCCC6(C(=O)O)CC6)nn5c4)c3Cl)c2Cl)ccc1CNC[C@@H]1CCC(=O)N1 [Example 262, (S)-1-(2-(((6-(3-Chloro-4-(2-chloro-3-(6-methoxy-5-((((5-oxopyrrolidin-2-yl)methyl)amino)methyl)pyridin-2-yl)phenyl)pyridin-2-yl)-8-methoxy-[1,2,4]triazolo[1,5-a]pyridin-2-yl)methyl)amino)ethyl)cyclopropane-1-carboxylic acid] | 82.8
5 | COc1cc(-c2nccc(-c3cccc(-c4ccc5c(CN(C)C6CCN(C(C)=O)CC6)cn(C)c5n4)c3Cl)c2Cl)ccc1CNC1CCN(C(C)=O)CC1 [Example 264, 1-(4-((4-(4-(3-(3-(((1-acetylpiperidin-4-yl)(methyl)amino)methyl)-1-methyl-1H-pyrrolo[2,3-b]pyridin-6-yl)-2-chlorophenyl)-3-chloropyridin-2-yl)-2-methoxybenzyl)amino)piperidin-1-yl)ethan-1-one] | 47.7
6 | COc1nc(-c2cccc(-c3ccnc(-c4ccc5c(c4)CCC[C@H]5NC[C@@H]4CCC(=O)N4)c3Cl)c2Cl)ccc1CN[C@@H](CCO)C(=O)O [Example 265, ((6-(2-Chloro-3-(3-chloro-2-((R)-5-((((S)-5-oxopyrrolidin-2-yl)methyl)amino)-5,6,7,8-tetrahydronaphthalen-2-yl)pyridin-4-yl)phenyl)-2-methoxypyridin-3-yl)methyl)-L-homoserine] | 368
7 | COc1cc(-c2nccc(-c3cccc4c3CC[C@@H]4Oc3nc(OC)c(CNC[C@H](C)O)cc3C(F)(F)F)c2Cl)ccc1CNC[C@H](C)O [Example 270, (S)-1-(((6-(((S)-4-(3-Chloro-2-(4-((((S)-2-hydroxypropyl)amino)methyl)-3-methoxyphenyl)pyridin-4-yl)-2,3-dihydro-1H-inden-1-yl)oxy)-2-methoxy-5-(trifluoromethyl)pyridin-3-yl)methyl)amino)propan-2-ol] | 85.5
8 | COC(=O)CCN1CCc2cc(-c3nccc(-c4cccc(-c5ccc(CNC[C@H](C)O)c(OC)n5)c4Cl)c3Cl)cc(OC)c2C1 [Example 272, Methyl (S)-3-(6-(3-chloro-4-(2-chloro-3-(5-(((2-hydroxypropyl)amino)methyl)-6-methoxypyridin-2-yl)phenyl)pyridin-2-yl)-8-methoxy-3,4-dihydroisoquinolin-2(1H)-yl)propanoate] | 88.2
9 | COC(=O)CCN1CCc2cc(-c3nccc(-c4cccc(-c5ccc(CN6CC7(CNC(=O)C7)C6)c(OC)n5)c4Cl)c3Cl)cc(OC)c2C1 [Example 273, Methyl 3-(6-(3-chloro-4-(2-chloro-3-(6-methoxy-5-((7-oxo-2,6-diazaspiro[3.4]octan-2-yl)methyl)pyridin-2-yl)phenyl)pyridin-2-yl)-8-methoxy-3,4-dihydroisoquinolin-2(1H)-yl)propanoate] | 116

Next, values leading:

Row | EC50 [nM] | SMILES
10 | 39.2 | COc1nc(-c2ccnc(-c3cccc4c3CC[C@@H]4Oc3nc(OC)c(CNC[C@H](C)O)cc3C(F)(F)F)c2Cl)ccc1CNC[C@H](C)O [Example 253, (S)-1-(((3′-Chloro-2′-((S)-1-((5-((((S)-2-hydroxypropyl)amino)methyl)-6-methoxy-3-(trifluoromethyl)pyridin-2-yl)oxy)-2,3-dihydro-1H-inden-4-yl)-6-methoxy-[2,4′-bipyridin]-5-yl)methyl)amino)propan-2-ol]
11 | 305 | COc1nc(-c2cccc(-c3ccnc(-c4ccc5c(c4)CCC[C@H]5NC[C@@H]4CCC(=O)N4)c3Cl)c2Cl)ccc1CN1CC2(CNC(=O)C2)C1 [Example 255, 2-((6-(2-chloro-3-(3-chloro-2-((R)-5-((((S)-5-oxopyrrolidin-2-yl)-methyl)-amino)-5,6,7,8-tetrahydronaphthalen-2-yl)pyridin-4-yl)phenyl)-2-methoxypyridin-3-yl)methyl)-2,6-diazaspiro[3.4]octan-7-one]
12 | 75.4 | COc1nc(-c2cccc(-c3ccnc(-c4cc(OC)c5nc(CNC[C@@H]6CCC(=O)N6)nn5c4)c3Cl)c2Cl)ccc1CNC[C@@H]1CCC(=O)N1 [Example 258, (S)-5-((((6-(2-chloro-3-(3-chloro-2-(8-methoxy-2-(((((S)-5-oxopyrrolidin-2-yl)methyl)amino)methyl)-[1,2,4]triazolo[1,5-a]pyridin-6-yl)pyridin-4-yl)phenyl)-2-methoxypyridin-3-yl)methyl)amino)methyl)pyrrolidin-2-one]
13 | 58.6 | COc1nc(-c2cccc(-c3ccnc(-c4cc(OC)c5nc(CN6CC(C)(O)C6)nn5c4)c3Cl)c2Cl)ccc1CNC[C@@H]1CCC(=O)N1 [Example 259, (S)-5-((((6-(2-Chloro-3-(3-chloro-2-(2-((3-hydroxy-3-methylazetidin-1-yl)methyl)-8-methoxy-[1,2,4]triazolo[1,5-a]pyridin-6-yl)pyridin-4-yl)phenyl)-2-methoxypyridin-3-yl)methyl)amino)methyl)pyrrolidin-2-one]
14 | 126 | COc1nc(-c2cccc(-c3ccnc(-c4cc(OC)c5nc(CN6CC(C(=O)O)C6)nn5c4)c3Cl)c2Cl)ccc1CNC[C@@H]1CCC(=O)N1 [Example 261, (S)-1-((6-(3-Chloro-4-(2-chloro-3-(6-methoxy-5-((((5-oxopyrrolidin-2-yl)methyl)amino)methyl)pyridin-2-yl)phenyl)pyridin-2-yl)-8-methoxy-[1,2,4]triazolo[1,5-a]pyridin-2-yl)methyl)azetidine-3-carboxylic acid]
15 | 183 | COc1cc(-c2nccc(-c3cccc(-c4ccc(CNC5CCN(C(C)=O)CC5)c(OC)n4)c3Cl)c2C)ccc1CNC1CCN(C(C)=O)CC1 [Example 271, 1-(4-(((6-(3-(2-(4-(((1-Acetylpiperidin-4-yl)amino)methyl)-3-methoxyphenyl)-3-methylpyridin-4-yl)-2-chlorophenyl)-2-methoxypyridin-3-yl)methyl)amino)piperidin-1-yl)ethan-1-one]
